In article PMC12052975, “A key residue of the extracellular gate provides quality control contributing to ABCG substrate specificity” (Nature Communications, 2025):
Changes are numbered by the printed parent chain.

Columns and labels:
Format in all cases: cell-based
ABCG36/PDR8/PEN3 [1] = biological target: T1, ABCG36/PDR8/PEN3 (Arabidopsis thaliana, UniProt Q9XIE2); assay: radiolabel export from transfected N. benthamiana protoplasts; also stimulates ATPase in microsomes; specific binding to Arabidopsis microsomes; settings: labelled compound; export 25 °C, 15 min; ATPase with 50 μM compound at pH 9.0; binding at 10 nM
T1 construct: full length, 35S:ABCG36-GFP (GFP tag kept), Agrobacterium-transfected Nicotiana benthamiana mesophyll protoplasts or microsomes; full-size PDR-type ABC transporter
T1 sequence (Q9XIE2 1-1469): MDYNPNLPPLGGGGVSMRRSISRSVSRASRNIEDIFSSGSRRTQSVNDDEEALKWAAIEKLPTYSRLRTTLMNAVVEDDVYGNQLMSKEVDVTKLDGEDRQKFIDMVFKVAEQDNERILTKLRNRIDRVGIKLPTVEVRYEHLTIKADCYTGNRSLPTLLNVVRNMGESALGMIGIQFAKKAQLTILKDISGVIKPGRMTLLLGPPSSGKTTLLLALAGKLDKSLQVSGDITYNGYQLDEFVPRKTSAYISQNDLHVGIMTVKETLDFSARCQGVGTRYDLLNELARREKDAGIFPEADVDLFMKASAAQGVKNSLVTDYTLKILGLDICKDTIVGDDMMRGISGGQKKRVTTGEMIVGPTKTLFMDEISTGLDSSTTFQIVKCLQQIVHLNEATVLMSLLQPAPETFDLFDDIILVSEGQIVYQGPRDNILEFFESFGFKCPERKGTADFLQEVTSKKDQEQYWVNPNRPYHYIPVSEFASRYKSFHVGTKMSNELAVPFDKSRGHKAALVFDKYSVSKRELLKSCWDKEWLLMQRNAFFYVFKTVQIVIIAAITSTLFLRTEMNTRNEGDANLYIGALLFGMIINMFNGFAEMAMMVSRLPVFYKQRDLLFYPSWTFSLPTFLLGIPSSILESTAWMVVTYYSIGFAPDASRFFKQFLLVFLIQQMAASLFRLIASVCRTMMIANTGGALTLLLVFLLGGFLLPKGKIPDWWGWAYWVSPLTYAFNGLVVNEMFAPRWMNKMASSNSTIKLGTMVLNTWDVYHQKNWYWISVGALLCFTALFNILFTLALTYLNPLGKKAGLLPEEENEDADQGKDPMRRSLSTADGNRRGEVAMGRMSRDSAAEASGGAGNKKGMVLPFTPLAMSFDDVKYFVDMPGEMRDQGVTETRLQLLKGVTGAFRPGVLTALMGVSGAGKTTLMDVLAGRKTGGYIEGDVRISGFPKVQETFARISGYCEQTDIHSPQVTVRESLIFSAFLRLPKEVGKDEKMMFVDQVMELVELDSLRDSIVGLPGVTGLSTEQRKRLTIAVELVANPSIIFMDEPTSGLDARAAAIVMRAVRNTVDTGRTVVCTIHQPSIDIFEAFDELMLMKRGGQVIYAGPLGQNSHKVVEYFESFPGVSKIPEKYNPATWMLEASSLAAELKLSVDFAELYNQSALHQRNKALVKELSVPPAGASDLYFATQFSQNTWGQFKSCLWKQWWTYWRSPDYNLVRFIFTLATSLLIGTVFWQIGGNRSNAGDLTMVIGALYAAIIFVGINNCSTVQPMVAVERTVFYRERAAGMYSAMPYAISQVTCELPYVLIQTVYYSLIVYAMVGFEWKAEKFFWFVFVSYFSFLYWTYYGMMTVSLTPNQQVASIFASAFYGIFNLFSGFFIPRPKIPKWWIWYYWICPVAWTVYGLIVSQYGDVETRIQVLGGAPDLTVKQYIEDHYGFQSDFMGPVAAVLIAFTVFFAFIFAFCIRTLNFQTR

ABCG36/PDR8/PEN3 [2] = biological target: T2, ABCG36/PDR8/PEN3 (Arabidopsis thaliana, UniProt Q9XIE2, L704S); assay: radiolabel export from transfected N. benthamiana protoplasts; settings: labelled compound; export 25 °C, 15 min
T2 construct: full length, 35S:ABCG36-GFP (GFP tag kept), Agrobacterium-transfected Nicotiana benthamiana mesophyll protoplasts or microsomes; full-size PDR-type ABC transporter
T2 sequence (Q9XIE2 1-1469 L704S): T1 sequence (Q9XIE2 1-1469) with L704S

ABCG36/PDR8/PEN3 [3] = biological target: T3, ABCG36/PDR8/PEN3 (Arabidopsis thaliana, UniProt Q9XIE2, L704F); assay: radiolabel export from transfected N. benthamiana protoplasts; also stimulates ATPase in microsomes; settings: labelled compound; export 25 °C, 15 min; ATPase with 50 μM compound at pH 9.0
T3 construct: full length, 35S:ABCG36-GFP (GFP tag kept), Agrobacterium-transfected Nicotiana benthamiana mesophyll protoplasts or microsomes; full-size PDR-type ABC transporter
T3 sequence (Q9XIE2 1-1469 L704F): T1 sequence (Q9XIE2 1-1469) with L704F

| SMILES | radiolabel export from transfected N. benthamiana protoplasts; also stimulates A (ABCG36/PDR8/PEN3 [1]) | radiolabel export from transfected N. benthamiana protoplasts (ABCG36/PDR8/PEN3 [2]) | radiolabel export from transfected N. benthamiana protoplasts; also stimulates A (ABCG36/PDR8/PEN3 [3]) |
| --- | --- | --- | --- |
| c1ccc2c(-c3nccs3)c[nH]c2c1 [CLX, 3-thiazol-2-yl-indole] | stimulated by its substrates (IBA and CLX) but not by non-transported indolic compounds |  |  |
| O=C(O)Cc1c[nH]c2ccccc12 [IAA] |  | gain-of-IAA transport for polar but uncharged serine |  |
| O=C(O)CCCc1c[nH]c2ccccc12 [IBA, indole-3-butyric acid] | stimulated by its substrates (IBA and CLX) but not by non-transported indolic compounds |  | the L704F (abcg36-5) variant had no effect on ABCG36-mediated IBA export |
